The values that follow come from ChEMBL document CHEMBL5678818, “Discovery of potent SOS1 inhibitors that block RAS activation via disruption of the RAS-SOS1 interaction” (Proc Natl Acad Sci U S A, 2019).

Assay [1] concerns the target Serine/threonine-protein kinase pim-1 (Homo sapiens) (UniProt P11309). The experiment in a line: Inhibition of PIM1 (unknown origin) assessed as residual activity at 1000 nM by KINOMEscan analysis relative to control.
Assay [2] deals with STE20/SPS1-related proline-alanine-rich protein kinase (Homo sapiens) (UniProt Q9UEW8). Description: Inhibition of STK39 (unknown origin) assessed as residual activity at 1000 nM by KINOMEscan analysis relative to control.
In assay [3] the target is Serine/threonine-protein kinase 38 (Homo sapiens) (UniProt Q15208). The experiment in a line: Inhibition of NDR1 (unknown origin) assessed as residual activity at 1000 nM by KINOMEscan analysis relative to control.
Assay [4] concerns the target Serine/threonine-protein kinase MRCK alpha (Homo sapiens) (UniProt Q5VT25). Description: Inhibition of MRCKA (unknown origin) assessed as residual activity at 1000 nM by KINOMEscan analysis relative to control.
Assay [5] has as its target T1, Serine/threonine-protein kinase D1 (Homo sapiens) (UniProt Q15139).
T1 sequence (whole entry): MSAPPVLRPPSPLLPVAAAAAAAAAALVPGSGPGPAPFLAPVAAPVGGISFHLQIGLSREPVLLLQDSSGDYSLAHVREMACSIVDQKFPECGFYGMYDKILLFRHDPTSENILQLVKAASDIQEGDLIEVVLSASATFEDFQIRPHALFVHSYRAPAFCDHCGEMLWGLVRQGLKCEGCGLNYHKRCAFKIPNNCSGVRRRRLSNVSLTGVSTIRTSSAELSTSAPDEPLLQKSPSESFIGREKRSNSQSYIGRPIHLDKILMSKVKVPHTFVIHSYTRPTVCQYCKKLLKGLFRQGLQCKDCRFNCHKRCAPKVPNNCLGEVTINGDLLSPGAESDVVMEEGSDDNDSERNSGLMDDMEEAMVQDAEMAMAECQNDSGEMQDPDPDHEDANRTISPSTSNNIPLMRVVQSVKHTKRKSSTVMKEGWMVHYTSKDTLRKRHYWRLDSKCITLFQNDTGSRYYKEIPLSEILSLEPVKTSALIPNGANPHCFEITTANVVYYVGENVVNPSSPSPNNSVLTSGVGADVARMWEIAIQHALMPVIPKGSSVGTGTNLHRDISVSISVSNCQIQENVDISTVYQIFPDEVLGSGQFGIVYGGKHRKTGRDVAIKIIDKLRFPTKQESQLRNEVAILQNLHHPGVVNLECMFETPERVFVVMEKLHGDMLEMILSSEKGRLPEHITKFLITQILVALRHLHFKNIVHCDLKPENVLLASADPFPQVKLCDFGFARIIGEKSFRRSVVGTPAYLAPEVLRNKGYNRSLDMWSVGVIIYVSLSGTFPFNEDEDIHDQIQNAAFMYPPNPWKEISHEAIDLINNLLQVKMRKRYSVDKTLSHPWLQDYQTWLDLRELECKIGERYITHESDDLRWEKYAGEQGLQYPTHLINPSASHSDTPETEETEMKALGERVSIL
Description: Inhibition of PRKD1 (unknown origin) assessed as residual activity at 1000 nM by KINOMEscan analysis relative to control.

The target in assay [6] is Serine/threonine-protein kinase Nek4 (Homo sapiens) (UniProt P51957). Description: Inhibition of NEK4 (unknown origin) assessed as residual activity at 1000 nM by KINOMEscan analysis relative to control.
Assay [7] has as its target Casein kinase I isoform delta (Homo sapiens) (UniProt P48730). The experiment in a line: Inhibition of CSNK1D (unknown origin) assessed as residual activity at 1000 nM by KINOMEscan analysis relative to control.
Assay [8] deals with Macrophage colony-stimulating factor 1 receptor (Homo sapiens) (UniProt P07333). The experiment in a line: Inhibition of CSF1R (unknown origin) assessed as residual activity at 1000 nM by KINOMEscan analysis relative to control.
In assay [9] the target is T2, Uncharacterized serine/threonine-protein kinase SBK3 (Homo sapiens) (UniProt P0C264).
T2 sequence (whole entry): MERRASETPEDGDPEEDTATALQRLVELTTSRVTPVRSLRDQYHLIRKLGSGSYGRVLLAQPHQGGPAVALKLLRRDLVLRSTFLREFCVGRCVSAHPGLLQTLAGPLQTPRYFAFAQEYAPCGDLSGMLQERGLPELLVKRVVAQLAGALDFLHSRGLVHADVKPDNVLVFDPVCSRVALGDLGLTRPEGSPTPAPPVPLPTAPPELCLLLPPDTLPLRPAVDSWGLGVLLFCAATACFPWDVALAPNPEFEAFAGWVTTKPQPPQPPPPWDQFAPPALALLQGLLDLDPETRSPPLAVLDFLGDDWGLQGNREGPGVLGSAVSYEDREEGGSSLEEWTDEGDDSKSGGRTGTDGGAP
The experiment in a line: Inhibition of SgK110 (unknown origin) assessed as residual activity at 1000 nM by KINOMEscan analysis relative to control.

The target of assay [10] is Mitogen-activated protein kinase kinase kinase 20 (Homo sapiens) (UniProt Q9NYL2). The experiment in a line: Inhibition of ZAK (unknown origin) assessed as residual activity at 1000 nM by KINOMEscan analysis relative to control.
The target of assay [11] is T3, Dual specificity mitogen-activated protein kinase kinase 7 (Homo sapiens) (UniProt O14733).
T3 sequence (whole entry): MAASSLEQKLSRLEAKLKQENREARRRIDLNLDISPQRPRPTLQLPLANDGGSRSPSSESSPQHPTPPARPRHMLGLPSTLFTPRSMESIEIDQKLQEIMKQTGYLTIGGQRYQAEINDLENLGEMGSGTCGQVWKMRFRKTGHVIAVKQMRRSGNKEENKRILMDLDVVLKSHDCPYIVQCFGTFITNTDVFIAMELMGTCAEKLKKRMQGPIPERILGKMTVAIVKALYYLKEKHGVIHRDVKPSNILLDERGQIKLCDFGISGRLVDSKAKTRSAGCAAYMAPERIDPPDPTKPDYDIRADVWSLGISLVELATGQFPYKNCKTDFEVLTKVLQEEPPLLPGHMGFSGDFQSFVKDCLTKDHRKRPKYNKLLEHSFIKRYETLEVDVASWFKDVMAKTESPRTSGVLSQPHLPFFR
The experiment in a line: Inhibition of MKK7 (unknown origin) assessed as residual activity at 1000 nM by KINOMEscan analysis relative to control.

Assay [12] deals with Serine/threonine-protein kinase VRK2 (Homo sapiens) (UniProt Q86Y07). The experiment in a line: Inhibition of VRK2 (unknown origin) assessed as residual activity at 1000 nM by KINOMEscan analysis relative to control.
Assay [13] deals with Cyclin-dependent kinase 15 (Homo sapiens) (UniProt Q96Q40). The experiment in a line: Inhibition of PFTAIRE2 (unknown origin) assessed as residual activity at 1000 nM by KINOMEscan analysis relative to control.
In assay [14] the target is Tyrosine-protein kinase Lck (Homo sapiens) (UniProt P06239). The experiment in a line: Inhibition of LCK (unknown origin) assessed as residual activity at 1000 nM by KINOMEscan analysis relative to control.
In assay [15] the target is Tyrosine-protein kinase Srms (Homo sapiens) (UniProt Q9H3Y6). Description: Inhibition of SRMS (unknown origin) assessed as residual activity at 1000 nM by KINOMEscan analysis relative to control.
Sequence of Tyrosine-protein kinase Srms (Homo sapiens) (Q9H3Y6 whole entry): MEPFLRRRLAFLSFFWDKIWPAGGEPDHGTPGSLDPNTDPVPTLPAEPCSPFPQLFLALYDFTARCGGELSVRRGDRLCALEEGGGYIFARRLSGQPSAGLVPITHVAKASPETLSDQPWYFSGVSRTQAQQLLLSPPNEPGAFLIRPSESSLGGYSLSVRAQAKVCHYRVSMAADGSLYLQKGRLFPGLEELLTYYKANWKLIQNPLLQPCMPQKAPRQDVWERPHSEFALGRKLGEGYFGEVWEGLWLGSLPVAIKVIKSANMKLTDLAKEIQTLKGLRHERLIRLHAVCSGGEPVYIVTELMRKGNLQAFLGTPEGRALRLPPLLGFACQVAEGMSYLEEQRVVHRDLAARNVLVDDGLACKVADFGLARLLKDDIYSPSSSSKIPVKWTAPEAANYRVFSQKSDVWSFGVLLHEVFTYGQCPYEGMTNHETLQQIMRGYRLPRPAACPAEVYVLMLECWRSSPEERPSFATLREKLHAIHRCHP

Sequence of Serine/threonine-protein kinase MRCK alpha (Homo sapiens) (Q5VT25 whole entry): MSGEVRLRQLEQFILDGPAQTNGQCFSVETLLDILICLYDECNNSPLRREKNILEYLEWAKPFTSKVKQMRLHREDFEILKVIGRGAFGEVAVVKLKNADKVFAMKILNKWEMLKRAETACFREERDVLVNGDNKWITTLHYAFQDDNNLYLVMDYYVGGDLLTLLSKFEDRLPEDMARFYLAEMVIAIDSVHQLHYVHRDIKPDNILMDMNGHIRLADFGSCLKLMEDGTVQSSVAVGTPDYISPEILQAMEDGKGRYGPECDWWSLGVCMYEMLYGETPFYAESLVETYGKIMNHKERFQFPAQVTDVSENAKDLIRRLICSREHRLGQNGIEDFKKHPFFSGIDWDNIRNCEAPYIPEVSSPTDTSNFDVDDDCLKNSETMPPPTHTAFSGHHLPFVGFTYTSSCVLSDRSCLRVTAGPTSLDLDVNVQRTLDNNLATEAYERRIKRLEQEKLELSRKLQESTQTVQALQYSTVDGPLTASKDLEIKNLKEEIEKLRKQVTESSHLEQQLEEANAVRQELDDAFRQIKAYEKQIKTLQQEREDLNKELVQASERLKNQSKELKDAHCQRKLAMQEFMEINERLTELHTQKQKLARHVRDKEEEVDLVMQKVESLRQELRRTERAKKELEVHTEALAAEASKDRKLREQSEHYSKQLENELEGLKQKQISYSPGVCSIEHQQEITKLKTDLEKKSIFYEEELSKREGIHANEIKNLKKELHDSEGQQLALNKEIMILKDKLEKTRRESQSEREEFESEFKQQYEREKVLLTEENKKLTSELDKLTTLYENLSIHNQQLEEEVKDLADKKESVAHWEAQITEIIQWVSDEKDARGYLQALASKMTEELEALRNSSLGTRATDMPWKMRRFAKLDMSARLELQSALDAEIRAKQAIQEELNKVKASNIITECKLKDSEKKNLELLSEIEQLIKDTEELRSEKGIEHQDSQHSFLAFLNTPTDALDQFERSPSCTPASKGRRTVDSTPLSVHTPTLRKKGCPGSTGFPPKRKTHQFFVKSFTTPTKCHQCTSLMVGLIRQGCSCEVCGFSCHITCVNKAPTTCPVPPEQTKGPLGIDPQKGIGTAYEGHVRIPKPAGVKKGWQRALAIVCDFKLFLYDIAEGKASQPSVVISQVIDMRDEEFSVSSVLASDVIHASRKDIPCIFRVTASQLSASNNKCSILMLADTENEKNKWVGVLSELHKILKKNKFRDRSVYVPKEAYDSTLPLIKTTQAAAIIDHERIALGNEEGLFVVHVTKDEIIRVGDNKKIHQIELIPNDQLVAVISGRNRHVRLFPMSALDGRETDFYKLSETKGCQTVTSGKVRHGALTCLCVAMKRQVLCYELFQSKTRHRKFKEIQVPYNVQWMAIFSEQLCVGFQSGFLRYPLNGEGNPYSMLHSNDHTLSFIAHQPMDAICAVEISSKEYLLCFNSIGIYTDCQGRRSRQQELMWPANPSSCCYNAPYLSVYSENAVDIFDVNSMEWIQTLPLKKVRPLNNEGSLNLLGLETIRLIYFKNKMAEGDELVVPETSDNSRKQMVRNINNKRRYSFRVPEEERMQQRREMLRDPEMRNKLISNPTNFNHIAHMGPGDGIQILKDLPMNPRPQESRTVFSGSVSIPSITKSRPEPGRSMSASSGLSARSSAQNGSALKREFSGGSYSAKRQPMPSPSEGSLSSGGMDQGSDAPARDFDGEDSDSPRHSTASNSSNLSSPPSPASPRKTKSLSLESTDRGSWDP
Sequence of Macrophage colony-stimulating factor 1 receptor (Homo sapiens) (P07333 whole entry): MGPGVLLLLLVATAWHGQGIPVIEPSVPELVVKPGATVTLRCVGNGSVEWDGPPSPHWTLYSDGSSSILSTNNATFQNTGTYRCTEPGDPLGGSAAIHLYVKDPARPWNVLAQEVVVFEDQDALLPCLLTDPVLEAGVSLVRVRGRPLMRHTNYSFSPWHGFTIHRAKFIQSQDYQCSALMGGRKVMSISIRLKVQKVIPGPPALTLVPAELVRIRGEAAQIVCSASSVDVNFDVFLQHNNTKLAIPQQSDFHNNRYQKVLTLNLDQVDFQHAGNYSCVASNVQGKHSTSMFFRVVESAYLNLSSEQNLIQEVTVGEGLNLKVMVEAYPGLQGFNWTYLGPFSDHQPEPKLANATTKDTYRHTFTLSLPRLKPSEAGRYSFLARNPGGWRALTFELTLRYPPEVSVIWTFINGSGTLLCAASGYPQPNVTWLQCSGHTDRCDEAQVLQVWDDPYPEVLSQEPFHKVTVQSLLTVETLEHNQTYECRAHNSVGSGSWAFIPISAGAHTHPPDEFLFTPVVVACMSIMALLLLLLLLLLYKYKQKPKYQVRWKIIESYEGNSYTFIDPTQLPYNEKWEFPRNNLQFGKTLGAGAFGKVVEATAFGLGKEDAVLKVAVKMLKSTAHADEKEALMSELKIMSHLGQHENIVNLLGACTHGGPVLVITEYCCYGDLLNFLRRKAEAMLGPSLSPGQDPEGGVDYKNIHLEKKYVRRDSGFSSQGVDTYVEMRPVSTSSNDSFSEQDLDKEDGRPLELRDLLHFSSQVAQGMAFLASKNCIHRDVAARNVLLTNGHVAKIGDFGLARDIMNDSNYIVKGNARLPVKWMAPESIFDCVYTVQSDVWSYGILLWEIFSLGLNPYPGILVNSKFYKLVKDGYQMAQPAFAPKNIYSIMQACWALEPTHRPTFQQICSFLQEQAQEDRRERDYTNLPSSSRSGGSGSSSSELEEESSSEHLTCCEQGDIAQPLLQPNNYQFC
Sequence of Tyrosine-protein kinase Lck (Homo sapiens) (P06239 2-509 limits assumed): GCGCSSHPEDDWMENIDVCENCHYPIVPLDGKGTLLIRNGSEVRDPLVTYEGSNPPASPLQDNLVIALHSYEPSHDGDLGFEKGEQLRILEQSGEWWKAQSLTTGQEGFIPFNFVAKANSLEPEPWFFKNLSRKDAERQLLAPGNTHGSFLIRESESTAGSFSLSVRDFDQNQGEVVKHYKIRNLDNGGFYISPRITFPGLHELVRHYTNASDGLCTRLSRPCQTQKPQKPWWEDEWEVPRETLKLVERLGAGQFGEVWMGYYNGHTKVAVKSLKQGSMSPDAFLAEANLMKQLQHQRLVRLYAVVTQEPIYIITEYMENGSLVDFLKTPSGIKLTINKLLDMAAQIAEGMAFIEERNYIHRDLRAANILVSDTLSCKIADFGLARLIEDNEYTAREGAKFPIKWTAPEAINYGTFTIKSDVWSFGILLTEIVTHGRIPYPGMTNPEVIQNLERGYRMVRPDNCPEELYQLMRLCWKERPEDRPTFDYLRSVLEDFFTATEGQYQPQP
Sequence of Cyclin-dependent kinase 15 (Homo sapiens) (Q96Q40 whole entry): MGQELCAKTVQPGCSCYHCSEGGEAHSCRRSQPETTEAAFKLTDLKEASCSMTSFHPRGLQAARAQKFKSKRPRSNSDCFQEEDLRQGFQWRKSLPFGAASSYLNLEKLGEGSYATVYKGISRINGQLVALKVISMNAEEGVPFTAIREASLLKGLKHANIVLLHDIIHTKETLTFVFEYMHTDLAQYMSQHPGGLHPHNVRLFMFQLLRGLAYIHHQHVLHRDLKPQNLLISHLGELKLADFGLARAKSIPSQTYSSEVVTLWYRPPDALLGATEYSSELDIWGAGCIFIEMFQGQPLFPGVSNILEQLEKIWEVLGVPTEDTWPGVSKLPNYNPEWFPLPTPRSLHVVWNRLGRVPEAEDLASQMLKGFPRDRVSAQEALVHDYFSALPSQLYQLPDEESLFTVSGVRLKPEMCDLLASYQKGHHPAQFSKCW
Sequence of Casein kinase I isoform delta (Homo sapiens) (P48730 whole entry, looked up, canonical isoform): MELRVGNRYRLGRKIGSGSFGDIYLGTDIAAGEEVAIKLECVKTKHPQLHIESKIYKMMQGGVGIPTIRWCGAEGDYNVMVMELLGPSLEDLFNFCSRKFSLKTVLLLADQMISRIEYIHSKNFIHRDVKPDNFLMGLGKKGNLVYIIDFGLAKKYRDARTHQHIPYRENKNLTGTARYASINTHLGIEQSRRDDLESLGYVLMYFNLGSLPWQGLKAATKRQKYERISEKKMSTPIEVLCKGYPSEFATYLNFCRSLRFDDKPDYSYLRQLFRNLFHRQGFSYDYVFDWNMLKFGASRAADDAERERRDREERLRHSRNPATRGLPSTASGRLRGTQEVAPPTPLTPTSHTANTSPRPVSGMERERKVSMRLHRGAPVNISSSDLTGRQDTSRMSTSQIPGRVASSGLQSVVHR
Sequence of Serine/threonine-protein kinase 38 (Homo sapiens) (Q15208 2-465 limits assumed): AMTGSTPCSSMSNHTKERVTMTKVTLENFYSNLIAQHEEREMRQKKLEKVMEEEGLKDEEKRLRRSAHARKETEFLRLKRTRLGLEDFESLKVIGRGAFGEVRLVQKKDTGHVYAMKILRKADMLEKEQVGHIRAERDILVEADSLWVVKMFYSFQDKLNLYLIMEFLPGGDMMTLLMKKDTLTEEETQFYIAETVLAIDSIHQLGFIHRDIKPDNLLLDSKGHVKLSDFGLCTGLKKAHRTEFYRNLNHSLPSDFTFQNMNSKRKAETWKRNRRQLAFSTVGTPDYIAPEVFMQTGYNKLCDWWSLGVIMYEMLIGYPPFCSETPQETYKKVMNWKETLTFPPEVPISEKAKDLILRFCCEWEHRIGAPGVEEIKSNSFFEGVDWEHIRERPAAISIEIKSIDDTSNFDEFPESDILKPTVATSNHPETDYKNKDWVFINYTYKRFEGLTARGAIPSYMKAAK

Consider `COc1cc2ncnc(N[C@H](C)c3cccc4ccccc34)c2cc1OC`, for which the Activity in assay [1] came to 98%; in [2] it was 100%; in [3], 79%; in assay [4], 100%; in assay [5] it was 95%; in assay [6], 90%. For the same compound, the Activity in [7] was 95%; in assay [8], 76%; in [9], 100%; in assay [10] it was 89%; in [11], 77%; in assay [12] it was 81%. In addition, the Activity was found to be 100% in assay [13], 70% in assay [14] and 83% in assay [15].
For the compound `COc1cc2nc(C)nc(N[C@H](C)c3cccc(-c4cn[nH]c4)c3)c2cc1OC`, the Activity in [1] turned out to be 79%; in assay [2], 76%; in assay [3], 64%; in [4], 94%; in assay [5], 85%; in [6], 81%. Besides, the Activity in assay [7] came to 100%; in assay [8] it was 94%; in assay [9], 100%; in [10], 89%; in assay [11], 98%; in [12], 93%. In addition, the Activity in assay [13] was 94%; in assay [14] it was 56%; in assay [15], 87%.
